Source: patent EP2712863B1, “Novel inhibitors of bacterial biofilms and related methods” (Sequoia Sciences, Inc., priority 2012, dated 2014)
Converted amounts (≈) assume the structure as drawn. Like-named read-outs stand apart in the source and are kept apart here.

Legend:
P. aeruginosa = test: Biofilm growth assay (spreading biofilm on semi-solid agar); assay type: cell-based; conditions: Pseudomonas aeruginosa
E. coli = test: as above; assay type: cell-based; conditions: Escherichia coli
Method in brief: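 Spreading (swarming) biofilm on semi-solid agar: E. coli on LB with 0.6% agar and 0.5% glucose; P. aeruginosa on M8 agar with 0.2% glucose, 100 µM CaCl2, 1 mM MgSO4, 0.5% Casamino acids. Compound in medium; 5 µL overnight culture spotted centrally, 37°C overnight. Value: concentration (µg/ml) giving ≥85% reduction in spread area versus negative control.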

[1] = Table 3, concentration that reduces the area of the spreading biofilm by >= 85%, read-out: P. aeruginosa
[2] = Table 3, concentration that reduces the area of the spreading biofilm by >= 85%, read-out: E. coli

SMILES | IC85 (P. aeruginosa; [1]) [µg/mL] | IC85 (E. coli; [2]) [µg/mL] | further results
CN(C)c1ccc(C2=C3[C@@H]4CC(C)(C)CC[C@]4(C(=O)O)CC[C@@]3(C)[C@]3(C)CC[C@H]4C(C)(C)c5n[nH]c(N)c5C[C@]4(C)C3C2)cn1 (stereo partly drawn) [Compound 44, (4aS,6aS,6bR,8aR,13aR,15bS)-12-Amino-15-(6-(dimethylamino)pyridin-3-yl)-2,2,6a,6b,9,9,13a-heptamethyl-2,3,4,4a,5,6,6a,6b,7,8,8a,9,11,13,13a,13b,14,15b-octadecahydro-1H-chryseno[1,2-f]indazole-4a-carboxylic acid] | 0.5 (≈ 0.814 µM) | 2 (≈ 3.26 µM) | 
CC1(C)CC[C@]2(C(=O)O)CC[C@]3(C)C(=C(c4ccc(N5CCCC5)nc4)CC4[C@@]5(C)Cc6c(n[nH]c6N)C(C)(C)C5CC[C@]43C)C2C1 (stereo partly drawn) [Compound 45, (4aS,6aS,6bR,13aR)-12-Amino-2,2,6a,6b,9,9,13a-heptamethyl-15-(6-(pyrrolidin-1-yl)pyridin-3-yl)-2,3,4,4a,5,6,6a,6b,7,8,8a,9,11,13,13a,13b,14,15b-octadecahydro-1H-chryseno[1,2-f]indazole-4a-carboxylic acid] | 0.5 (≈ 0.781 µM) | 1 (≈ 1.56 µM) | 
CC1(C)CC[C@]2(C(=O)O)CC[C@]3(C)C(=C(c4cccc5cnccc45)CC4[C@@]5(C)Cc6c(n[nH]c6N)C(C)(C)C5CC[C@]43C)C2C1 (stereo partly drawn) [Compound 46, (4aS,6aS,6bR,13aR)-12-Amino-15-(isoquinolin-5-yl)-2,2,6a,6b,9,9,13a-heptamethyl-2,3,4,4a,5,6,6a,6b,7,8,8a,9,11,13,13a,13b,14,15b-octadecahydro-1H-chryseno[1,2-f]indazole-4a-carboxylic acid] | 0.5 (≈ 0.805 µM) | 1 (≈ 1.61 µM) | 
CC1(C)CC[C@]2(C(=O)O)CC[C@]3(C)C(=C(c4cccc5c4CCNC5)CC4[C@@]5(C)Cc6c(n[nH]c6N)C(C)(C)C5CC[C@]43C)C2C1 (stereo partly drawn) [Compound 47, (4aS,6aS,6bR,13aR)-12-Amino-2,2,6a,6b,9,9,13a-heptamethyl-15-(1,2,3,4-tetrahydroisoquinolin-5-yl)-2,3,4,4a,5,6,6a,6b,7,8,8a,9,11,13,13a,13b,14,15b-octadecahydro-1H-chryseno[1,2-f]indazole-4a-carboxylic acid] | 0.5 (≈ 0.8 µM) | 1 (≈ 1.6 µM) | 
CC1(C)CC[C@]2(C(=O)O)CC[C@]3(C)C(=C(c4cccc5[nH]ccc45)CC4[C@@]5(C)Cc6c(n[nH]c6N)C(C)(C)C5CC[C@]43C)C2C1 (stereo partly drawn) [Compound 48, (4aS,6aS,6bR,13aR)-12-Amino-15-(1H-indol-4-yl)-2,2,6a,6b,9,9,13a-heptamethyl-2,3,4,4a,5,6,6a,6b,7,8,8a,9,11,13,13a,13b,14,15b-octadecahydro-1H-chryseno[1,2-f]indazole-4a-carboxylic acid] | 0.5 (≈ 0.821 µM) | 1 (≈ 1.64 µM) | 
CC1(C)CC[C@]2(C(=O)O)CC[C@]3(C)C(=C(c4ccc5[nH]ccc5c4)CC4[C@@]5(C)Cc6c(n[nH]c6N)C(C)(C)C5CC[C@]43C)C2C1 (stereo partly drawn) [Compound 49, (4aS,6aS,6bR,13aR)-12-Amino-15-(1H-indol-5-yl)-2,2,6a,6b,9,9,13a-heptamethyl-2,3,4,4a,5,6,6a,6b,7,8,8a,9,11,13,13a,13b,14,15b-octadecahydro-1H-chryseno[1,2-f]indazole-4a-carboxylic acid] | 0.5 (≈ 0.821 µM) | > 1 | 
CC1(C)CC[C@]2(C(=O)O)CC[C@]3(C)C(=C(c4ccc(N5CCNCC5)cc4)CC4[C@@]5(C)Cc6c(n[nH]c6N)C(C)(C)C5CC[C@]43C)C2C1 (stereo partly drawn) [Compound 50, (4aS,6aS,6bR,13aR)-12-Amino-2,2,6a,6b,9,9,13a-heptamethyl-15-(4-(piperazin-1-yl)phenyl)-2,3,4,4a,5,6,6a,6b,7,8,8a,9,11,13,13a,13b,14,15b-octadecahydro-1H-chryseno[1,2-f]indazole-4a-carboxylic acid] | 2 (≈ 3.06 µM) | 1 (≈ 1.53 µM) | 
CC1(C)CC[C@]2(C(=O)O)CC[C@]3(C)C(=C(c4ccc(N5CCOCC5)cc4)CC4[C@@]5(C)Cc6c(n[nH]c6N)C(C)(C)C5CC[C@]43C)C2C1 (stereo partly drawn) [Compound 51, (4aS,6aS,6bR,13aR)-12-Amino-2,2,6a,6b,9,9,13a-heptamethyl-15-(4-morpholinophenyl)-2,3,4,4a,5,6,6a,6b,7,8,8a,9,11,13,13a,13b,14,15b-octadecahydro-1H-chryseno[1,2-f]indazole-4a-carboxylic acid] | 0.5 (≈ 0.763 µM) | 2 (≈ 3.05 µM) | 
CC1(C)CC[C@]2(C(=O)O)CC[C@]3(C)C(=C(c4ccc(CN5CCOCC5)cc4)CC4[C@@]5(C)Cc6c(n[nH]c6N)C(C)(C)C5CC[C@]43C)C2C1 (stereo partly drawn) [Compound 52, (4aS,6aS,6bR,13aR)-12-Amino-2,2,6a,6b,9,9,13a-heptamethyl-15-(4-(morpholinomethyl)phenyl)-2,3,4,4a,5,6,6a,6b,7,8,8a,9,11,13,13a,13b,14,15b-octadecahydro-1H-chryseno[1,2-f]indazole-4a-carboxylic acid] | 1 (≈ 1.49 µM) | 2 (≈ 2.99 µM) | 
CN1CCN(c2ccc(C3=C4C5CC(C)(C)CC[C@]5(C(=O)O)CC[C@@]4(C)[C@]4(C)CCC5C(C)(C)c6n[nH]c(N)c6C[C@]5(C)C4C3)cc2)CC1 (stereo partly drawn) [Compound 53, (4aS,6aS,6bR,13aR)-12-Amino-2,2,6a,6b,9,9,13a-heptamethyl-15-(4-(4-methylpiperazin-1-yl)phenyl)-2,3,4,4a,5,6,6a,6b,7,8,8a,9,11,13,13a,13b,14,15b-octadecahydro-1H-chryseno[1,2-f]indazole-4a-carboxylic acid] | 0.5 (≈ 0.749 µM) | 2 (≈ 2.99 µM) | 
CC1(C)CC[C@]2(C(=O)O)CC[C@]3(C)C(=C(c4ccc(N5CCOCC5)nc4)CC4[C@@]5(C)Cc6c(n[nH]c6N)C(C)(C)[C@@H]5CC[C@]43C)[C@@H]2C1 (stereo partly drawn) [Compound 54, (4aS,6aS,6bR,8aR,13aR,15bS)-12-Amino-2,2,6a,6b,9,9,13a-heptamethyl-15-(6-morpholinopyridin-3-yl)-2,3,4,4a,5,6,6a,6b,7,8,8a,9,11,13,13a,13b,14,15b-octadecahydro-1H-chryseno[1,2-f]indazole-4a-carboxylic acid] | 1 (≈ 1.52 µM) | 2 (≈ 3.05 µM) | 
CC1(C)CC[C@]2(C(=O)O)CC[C@]3(C)C(=C(c4ccc(N5CCNCC5)nc4)CC4[C@@]5(C)Cc6c(n[nH]c6N)C(C)(C)C5CC[C@]43C)C2C1 (stereo partly drawn) [Compound 55, (4aS,6aS,6bR,13aR)-12-Amino-2,2,6a,6b,9,9,13a-heptamethyl-15-(6-(piperazin-1-yl)pyridin-3-yl)-2,3,4,4a,5,6,6a,6b,7,8,8a,9,11,13,13a,13b,14,15b-octadecahydro-1H-chryseno[1,2-f]indazole-4a-carboxylic acid] | > 1 | 2 (≈ 3.05 µM) | 
CN1CCN(c2ccc(C3=C4C5CC(C)(C)CC[C@]5(C(=O)O)CC[C@@]4(C)[C@]4(C)CCC5C(C)(C)c6n[nH]c(N)c6C[C@]5(C)C4C3)cn2)CC1 (stereo partly drawn) [Compound 56, (4aS,6aS,6bR,13aR)-12-Amino-2,2,6a,6b,9,9,13a-heptamethyl-15-(6-(4-methylpiperazin-1-yl)pyridin-3-yl)-2,3,4,4a,5,6,6a,6b,7,8,8a,9,11,13,13a,13b,14,15b-octadecahydro-1H-chryseno[1,2-f]indazole-4a-carboxylic acid] | 1 (≈ 1.49 µM) | 2 (≈ 2.99 µM) | 
CC1(C)CC[C@]2(C(=O)O)CC[C@]3(C)C(=C(c4ccc(N5CCC(N)CC5)nc4)CC4[C@@]5(C)Cc6c(n[nH]c6N)C(C)(C)C5CC[C@]43C)C2C1 (stereo partly drawn) [Compound 57, (4aS,6aS,6bR,13aR)-12-Amino-15-(6-(4-aminopiperidin-1-yl)pyridin-3-yl)-2,2,6a,6b,9,9,13a-heptamethyl-2,3,4,4a,5,6,6a,6b,7,8,8a,9,11,13,13a,13b,14,15b-octadecahydro-1H-chryseno[1,2-f]indazole-4a-carboxylic acid] | > 2 | 1 (≈ 1.49 µM) | 
CC1(C)CC[C@]2(C(=O)O)CC[C@]3(C)C(=C(c4ccc(N5CCC(N)C5)nc4)CC4[C@@]5(C)Cc6c(n[nH]c6N)C(C)(C)C5CC[C@]43C)C2C1 (stereo partly drawn) [Compound 58, (4aS,6aS,6bR,13aR)-12-Amino-15-(6-(3-aminopyrrolidin-1-yl)pyridin-3-yl)-2,2,6a,6b,9,9,13a-heptamethyl-2,3,4,4a,5,6,6a,6b,7,8,8a,9,11,13,13a,13b,14,15b-octadecahydro-1H-chryseno[1,2-f]indazole-4a-carboxylic acid] | 1 (≈ 1.53 µM) | 2 (≈ 3.05 µM) | 
CC1(C)CC[C@]2(C(=O)O)CC[C@]3(C)C(=C(c4ccccc4CN4CCOCC4)CC4[C@@]5(C)Cc6c(n[nH]c6N)C(C)(C)[C@@H]5CC[C@]43C)[C@@H]2C1 (stereo partly drawn) [Compound 59, (4aS,6aS,6bR,8aR,13aR,15bS)-12-Amino-2,2,6a,6b,9,9,13a-heptamethyl-15-(2-(morpholinomethyl)phenyl)-2,3,4,4a,5,6,6a,6b,7,8,8a,9,11,13,13a,13b,14,15b-octadecahydro-1H-chryseno[1,2-f]indazole-4a-carboxylic acid] | 0.5 (≈ 0.747 µM) | > 1 | 
CC1(C)CC[C@]2(c3cc(N)[nH]n3)CC[C@]3(C)C(=CCC4[C@@]5(C)Cc6c(n[nH]c6N)C(C)(C)C5CC[C@]43C)C2C1 (stereo partly drawn) [Compound 60, (4aS,6aS,6bR,13aR)-4a-(5-Amino-1 H-pyrazol-3-yl)-2,2,6a,6b,9,9,13a-heptamethyl-2,3,4,4a,5,6,6a,6b,7,8,8a,9,11,13,13a,13b,14,15b-octadecahydro-1H-chryseno[1,2-f]indazol-12-amine] |  |  | IC85 (P. aeruginosa; Table 4, concentration that reduces the area of the spreading biofilm by >= 85%, read-out: P. aeruginosa): 0.5 µg/mL (≈ 0.942 µM); IC85 (E. coli; Table 4, concentration that reduces the area of the spreading biofilm by >= 85%, read-out: E. coli): 1 µg/mL (≈ 1.88 µM)
CC1(C)CC[C@]2(C(=O)Nc3nnn[nH]3)CC[C@]3(C)C(=CCC4[C@@]5(C)Cc6c(n[nH]c6N)C(C)(C)C5CC[C@]43C)C2C1 (stereo partly drawn) [Compound 61, (4aS,6aS,6bR,13aR)-12-Amino-2,2,6a,6b,9,9,13a-heptamethyl-N-(1H-tetrazol-5-yl)-2,3,4,4a,5,6,6a,6b,7,8,8a,9,11,13,13a,13b,14,15b-octadecahydro-1H-chryseno[1,2-f]indazole-4a-carboxamide] |  |  | IC85 (P. aeruginosa; read-out: P. aeruginosa (µg/ml)): 0.5 µg/mL (≈ 0.892 µM); IC85 (E. coli; read-out: E. coli (µg/ml)): 0.5 µg/mL (≈ 0.892 µM)
